{
  "source": "BindingDB's records for doi:10.1097/00001756-199710200-00002",
  "about": "(Cnrs Upr 9023, 1997)",
  "note": "“And” between values parts separate entries of the source, which are not always exact repeats. Equal entries are not always repeated.",
  "data": [
    {"molecular_target": "5-hydroxytryptamine receptor 4 (Homo sapiens, UniProt Q13639)", "sequence (Q13639 whole entry)": "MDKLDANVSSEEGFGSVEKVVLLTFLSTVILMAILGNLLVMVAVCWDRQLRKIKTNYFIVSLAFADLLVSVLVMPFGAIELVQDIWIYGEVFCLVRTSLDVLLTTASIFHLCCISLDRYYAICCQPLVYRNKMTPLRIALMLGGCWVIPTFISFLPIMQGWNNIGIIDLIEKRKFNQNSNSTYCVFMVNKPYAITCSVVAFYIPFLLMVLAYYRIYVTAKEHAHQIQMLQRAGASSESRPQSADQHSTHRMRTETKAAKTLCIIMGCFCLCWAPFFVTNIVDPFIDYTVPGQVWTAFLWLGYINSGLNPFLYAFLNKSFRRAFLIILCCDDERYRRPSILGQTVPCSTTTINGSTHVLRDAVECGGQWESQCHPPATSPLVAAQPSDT", "values": [
      {"compound": "CC(C)n1c(=O)n(C(=O)NC2CC3CCC(C2)N3C)c2ccccc21", "note": "(centres undefined) [BIMU 8]", "Ki": "45.7 nM"},
      {"compound": "COc1ccc2[nH]c(=O)n(C(=O)OC3CC4CCC(C3)N4C)c2c1", "note": "(centres undefined) [DAU 6285]", "Ki": "18.6 nM and 10.5 nM"},
      {"compound": "Cn1cc(C(=O)OCC2CCN(CCNS(C)(=O)=O)CC2)c2ccccc21", "note": "[GR 113808]", "Ki": "0.02 nM and 0.09 nM"},
      {"compound": "COc1[nH]c2ccc(F)cc2c1C(=O)OCC1CCN(CCNS(C)(=O)=O)CC1", "note": "[GR-125487]", "Ki": "0.02 nM"},
      {"compound": "COc1cc(N)c(Cl)cc1C(=O)NC1CN2CCC1CC2", "note": "(centres undefined) [ZACOPRIDE,R]", "Ki": "282 nM"},
      {"compound": "COc1ccc2[nH]cc(CCN)c2c1", "note": "[tryptamine, 5-Methoxy]", "Ki": "155 nM"}
    ]},
    {"molecular_target": "5-hydroxytryptamine receptor 4 (Rattus norvegicus, UniProt Q62758)", "sequence (Q62758 whole entry)": "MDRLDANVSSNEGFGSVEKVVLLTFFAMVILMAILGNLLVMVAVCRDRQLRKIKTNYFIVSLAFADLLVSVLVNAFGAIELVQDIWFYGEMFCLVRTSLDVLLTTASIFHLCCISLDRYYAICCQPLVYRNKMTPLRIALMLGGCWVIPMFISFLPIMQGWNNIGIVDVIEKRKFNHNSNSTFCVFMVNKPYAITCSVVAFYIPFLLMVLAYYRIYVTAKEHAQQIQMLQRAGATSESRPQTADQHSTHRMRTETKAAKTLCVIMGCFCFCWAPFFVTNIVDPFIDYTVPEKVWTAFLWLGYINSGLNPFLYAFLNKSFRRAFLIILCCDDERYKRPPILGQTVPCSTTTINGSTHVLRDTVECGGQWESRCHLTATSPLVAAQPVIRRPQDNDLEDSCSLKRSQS", "values": [
      {"compound": "CC(C)n1c(=O)n(C(=O)NC2CC3CCC(C2)N3C)c2ccccc21", "note": "(centres undefined) [BIMU 8]", "Ki": "19.1 nM"},
      {"compound": "COc1ccc2[nH]c(=O)n(C(=O)OC3CC4CCC(C3)N4C)c2c1", "note": "(centres undefined) [DAU 6285]", "Ki": "22.4 nM and 5.37 nM"},
      {"compound": "Cn1cc(C(=O)OCC2CCN(CCNS(C)(=O)=O)CC2)c2ccccc21", "note": "[GR 113808]", "Ki": "0.02 nM and 0.03 nM"},
      {"compound": "COc1[nH]c2ccc(F)cc2c1C(=O)OCC1CCN(CCNS(C)(=O)=O)CC1", "note": "[GR-125487]", "Ki": "0.0089 nM"},
      {"compound": "COc1cc(N)c(Cl)cc1C(=O)NC1CCN2CCCC1C2", "note": "(centres undefined) [NSC_3035240]", "Ki": "112 nM"},
      {"compound": "COc1cc(N)c(Cl)cc1C(=O)NC1CN2CCC1CC2", "note": "(centres undefined) [ZACOPRIDE,R]", "Ki": "186 nM"},
      {"compound": "NCCc1c[nH]c2ccc(C(N)=O)cc12", "note": "[[3H]-5-carboxamidotryptamine]", "Ki": "9120 nM"},
      {"compound": "COc1ccc2[nH]cc(CCN)c2c1", "note": "[tryptamine, 5-Methoxy]", "Ki": "123 nM"}
    ]}
  ]
}
